# Laboratory results published in ChEMBL document CHEMBL1129317, “Novel selective and partial agonists of 5-HT3 receptors. Part 1. Synthesis and biological evaluation of piperazinopyrrolothienopyrazines” (J Med Chem, 1996).
# How the values were obtained:
# [1] = molecular target: T1, 5-hydroxytryptamine receptor 1A (Homo sapiens, UniProt P08908); assay: Binding affinity for 5-hydroxytryptamine 1A receptor
# T1 sequence (P08908 whole entry): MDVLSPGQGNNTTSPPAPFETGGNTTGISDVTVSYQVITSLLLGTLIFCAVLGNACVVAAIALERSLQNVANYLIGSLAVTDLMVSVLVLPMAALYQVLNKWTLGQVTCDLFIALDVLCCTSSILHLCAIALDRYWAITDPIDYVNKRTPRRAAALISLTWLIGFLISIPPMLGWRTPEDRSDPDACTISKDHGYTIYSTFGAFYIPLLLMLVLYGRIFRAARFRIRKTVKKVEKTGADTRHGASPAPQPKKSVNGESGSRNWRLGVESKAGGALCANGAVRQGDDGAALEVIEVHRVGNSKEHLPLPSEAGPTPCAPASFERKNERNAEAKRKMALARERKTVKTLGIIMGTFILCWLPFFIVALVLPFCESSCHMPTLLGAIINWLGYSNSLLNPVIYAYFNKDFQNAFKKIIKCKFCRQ
# [2] = molecular target: 5-hydroxytryptamine receptor 1D (Sus scrofa, UniProt P79400); assay: Binding affinity for 5-hydroxytryptamine 1D receptor
# [3] = molecular target: T2, Serotonin 3 (5-HT3) receptor (Rattus norvegicus) (UniProt P35563+Q9JJ16); assay: Agonistic activity of compound towards 5-hydroxytryptamine 3 receptor in Von Bezold-Jarisch Reflex in rats at 60 (ug/kg), evaluated as change in heart rate; type: functional
# [4] = molecular target: T2, Serotonin 3 (5-HT3) receptor (Rattus norvegicus); assay: Antagonistic activity of compound towards 5-hydroxytryptamine 3 receptor in Von Bezold-Jarisch reflex in rats at 60 (ug/kg), evaluated as percent inhibition of bradycardia; type: functional
# [5] = molecular target: T2, Serotonin 3 (5-HT3) receptor (Rattus norvegicus); assay: Agonistic activity of compound towards 5-hydroxytryptamine 3 receptor in Von Bezold-Jarisch Reflex in rats at 120 (ug/kg), evaluated as change in heart rate; type: functional
# [6] = molecular target: Adenosine A2 receptor (Homo sapiens) (UniProt P29275+P29274); assay: Inhibitory activity against Adenosine A2 receptor using [3H]CGS-21680 at […] (M); type: protein assay
# [7] = molecular target: Adrenergic receptor alpha-1 (Homo sapiens) (UniProt P35348+P25100+P35368); assay: Inhibitory activity against Alpha-1 adrenergic receptor using [3H]-prazosin at 10e-5 (M); type: protein assay
# [8] = molecular target: T3, GABA-A receptor; anion channel (Homo sapiens) (UniProt P14867+P47870+P18507+P28472+P48169+Q99928+Q9UN88+P34903+O00591+O14764+Q8N1C3+P18505+P78334+P47869+P31644+Q16445); assay: Inhibition of [3H]flunitrazepam binding to GABA-A central Benzodiazepine receptor at 10e-5 M; type: protein-complex assay
# [9] = molecular target: Beta-2 adrenergic receptor (Homo sapiens) (UniProt P07550); assay: Inhibitory activity against Beta-2 adrenergic receptor using [3H]CGP-12177 at […] (M)
# [10] = molecular target: Angiotensin II receptor (Homo sapiens) (UniProt P30556+P50052); assay: Inhibitory activity against Angiotensin II receptor using [3H]Angiotensin II at […] (M); type: protein assay
# [11] = Inhibitory activity against Bradykinin receptor using [3H]bradykinin at […] (M)
# [12] = molecular target: Cysteinyl leukotriene receptor 1 (Homo sapiens) (UniProt Q9Y271); assay: Inhibitory activity against Cysteinyl leukotriene D4 receptor using [3H]- LTD4 at […] (M)
# [13] = molecular target: D(1A) dopamine receptor (Homo sapiens) (UniProt P21728); assay: Inhibitory activity against Dopamine receptor D1 using [3H]SCH-23,390 at […] (M)
# [14] = molecular target: D(2) dopamine receptor (Homo sapiens) (UniProt P14416); assay: (§1) In vitro displacement from Dopamine receptor D2; conditions: concentration not given here
# [15] = molecular target: T3, GABA-A receptor; anion channel (Homo sapiens); assay: Inhibitory activity against Gamma-aminobutyric acid A (GABA-A) receptor using [3H]-muscimol at 10e-5 M; type: protein-complex assay
# [16] = Inhibitory activity against Gamma-aminobutyric acid type B receptor using [3H]GABA at 10e-5 M
# [17] = molecular target: Muscarinic acetylcholine receptor M1 (Homo sapiens) (UniProt P11229); assay: Inhibitory activity against Muscarinic acetylcholine receptor M1 using [3H]pirenzepine at […] (M)
# [18] = molecular target: Neuropeptide Y receptor type 1 (Homo sapiens) (UniProt P25929); assay: Inhibitory activity against Neuropeptide Y receptor type 1 using [3H]-NPY at 10e5 (M)
# NG108-15 = assay: In vitro effective concentration against [14C]guanidinium uptake into NG 108-15 cells; type: functional, cell-based; conditions: Murinae
# [19] = molecular target: Muscarinic acetylcholine receptor M3 (Homo sapiens) (UniProt P20309); assay: Inhibitory activity against Muscarinic acetylcholine receptor M3 using [3H]NMS at […] (M)
# [20] = molecular target: Muscarinic acetylcholine receptor M2 (Homo sapiens) (UniProt P08172); assay: Inhibitory activity against Muscarinic acetylcholine receptor M2 using [3H]NMS at […] (M)
# [21] = molecular target: Kappa-type opioid receptor (Homo sapiens) (UniProt P41145); assay: Inhibitory activity against Opioid receptor kappa 1 using [3H]U-69593 at 10e-5 (M)
# [22] = molecular target: Kappa-type opioid receptor (Homo sapiens) (UniProt P41145); assay: Inhibitory activity against Opioid receptor kappa 1 using [3H]U-69593 at 10e-7 (M)
# [23] = molecular target: Delta-type opioid receptor (Rattus norvegicus) (UniProt P33533); assay: Inhibitory activity against Opioid receptor delta 1 using [3H]Cl-phe-DPDPE at 10e-5 (M)
# [24] = molecular target: Platelet-activating factor receptor (Homo sapiens) (UniProt P25105); assay: Inhibitory activity against Platelet activating factor receptor using [3H]PAF at […] (M)
# [25] = molecular target: Glutamate receptor ionotropic AMPA (Homo sapiens) (UniProt P48058+P42263+P42262+P42261); assay: Inhibitory activity against Quisqualate receptor using [3H]AMPA at […] (M); type: protein-complex assay
# [26] = Inhibition of [3H]apamin binding to Potassium channel at 10e-5 M
# [27] = molecular target: Thyrotropin-releasing hormone receptor (Homo sapiens) (UniProt P34981); assay: Inhibitory activity against TRH using [3H]TRH at 10e-5 (M)
# [28] = molecular target: Thromboxane A2 receptor (Homo sapiens) (UniProt P21731); assay: Inhibitory activity against Thromboxane A2 using [3H]SG-29548 at 10e-5 (M)
# [29] = Inhibitory activity against VIP using [125]VIP at 10e-5 (M)
# [30] = molecular target: D(2) dopamine receptor (Homo sapiens) (UniProt P14416); assay: as §1; conditions: concentration not given here; remark: listed apart in the source
# [31] = molecular target: Leukotriene B4 receptor 1 (Homo sapiens) (UniProt Q15722); assay: Inhibitory activity against Leukotriene B4 receptor using [3H]- LTB4 at […] (M)
# Chain of Leukotriene B4 receptor 1 (Homo sapiens) (Q15722 whole entry): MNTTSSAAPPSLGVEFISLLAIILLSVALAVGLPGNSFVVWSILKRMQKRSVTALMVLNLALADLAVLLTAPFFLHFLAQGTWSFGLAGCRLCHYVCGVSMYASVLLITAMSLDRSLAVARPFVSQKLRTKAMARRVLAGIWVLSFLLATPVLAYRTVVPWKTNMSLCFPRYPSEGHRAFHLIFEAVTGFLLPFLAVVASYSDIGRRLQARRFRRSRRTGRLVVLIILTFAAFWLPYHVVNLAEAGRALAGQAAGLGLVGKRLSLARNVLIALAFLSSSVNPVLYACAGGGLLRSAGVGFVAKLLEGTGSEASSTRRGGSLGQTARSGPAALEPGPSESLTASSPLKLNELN
# Chain of Kappa-type opioid receptor (Homo sapiens) (P41145 whole entry): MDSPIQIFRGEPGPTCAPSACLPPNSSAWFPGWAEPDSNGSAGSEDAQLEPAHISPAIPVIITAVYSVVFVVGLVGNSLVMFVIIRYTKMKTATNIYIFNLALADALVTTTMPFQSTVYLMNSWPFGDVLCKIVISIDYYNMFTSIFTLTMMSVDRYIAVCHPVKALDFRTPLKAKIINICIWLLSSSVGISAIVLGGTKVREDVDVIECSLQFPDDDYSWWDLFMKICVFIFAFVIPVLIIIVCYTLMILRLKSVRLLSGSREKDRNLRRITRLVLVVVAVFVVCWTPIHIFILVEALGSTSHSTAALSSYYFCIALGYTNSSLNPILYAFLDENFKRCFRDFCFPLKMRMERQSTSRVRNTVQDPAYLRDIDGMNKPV
# Chain of D(2) dopamine receptor (Homo sapiens) (P14416 whole entry): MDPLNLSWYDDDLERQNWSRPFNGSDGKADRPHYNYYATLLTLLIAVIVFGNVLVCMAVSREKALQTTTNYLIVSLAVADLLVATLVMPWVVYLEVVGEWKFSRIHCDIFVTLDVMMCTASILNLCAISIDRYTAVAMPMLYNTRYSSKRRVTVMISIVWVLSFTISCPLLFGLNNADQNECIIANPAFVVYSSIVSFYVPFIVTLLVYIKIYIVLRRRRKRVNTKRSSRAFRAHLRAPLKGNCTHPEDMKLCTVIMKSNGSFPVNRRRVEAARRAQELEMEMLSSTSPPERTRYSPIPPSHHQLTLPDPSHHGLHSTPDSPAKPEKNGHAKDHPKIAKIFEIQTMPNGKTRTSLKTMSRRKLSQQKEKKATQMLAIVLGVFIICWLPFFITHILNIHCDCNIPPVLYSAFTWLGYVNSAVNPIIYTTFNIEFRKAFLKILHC
# Chain of Thyrotropin-releasing hormone receptor (Homo sapiens) (P34981 whole entry): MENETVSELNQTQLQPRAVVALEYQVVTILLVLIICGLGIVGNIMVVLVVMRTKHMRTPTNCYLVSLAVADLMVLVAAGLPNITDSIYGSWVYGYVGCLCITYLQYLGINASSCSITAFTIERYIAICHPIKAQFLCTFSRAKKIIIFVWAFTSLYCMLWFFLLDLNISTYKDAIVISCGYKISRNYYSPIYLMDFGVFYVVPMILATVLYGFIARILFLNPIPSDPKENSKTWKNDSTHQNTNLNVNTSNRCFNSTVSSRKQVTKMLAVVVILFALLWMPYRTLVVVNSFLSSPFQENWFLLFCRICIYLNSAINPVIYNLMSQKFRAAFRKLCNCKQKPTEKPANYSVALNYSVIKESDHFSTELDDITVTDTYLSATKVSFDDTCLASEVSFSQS
# Chain of Neuropeptide Y receptor type 1 (Homo sapiens) (P25929 whole entry): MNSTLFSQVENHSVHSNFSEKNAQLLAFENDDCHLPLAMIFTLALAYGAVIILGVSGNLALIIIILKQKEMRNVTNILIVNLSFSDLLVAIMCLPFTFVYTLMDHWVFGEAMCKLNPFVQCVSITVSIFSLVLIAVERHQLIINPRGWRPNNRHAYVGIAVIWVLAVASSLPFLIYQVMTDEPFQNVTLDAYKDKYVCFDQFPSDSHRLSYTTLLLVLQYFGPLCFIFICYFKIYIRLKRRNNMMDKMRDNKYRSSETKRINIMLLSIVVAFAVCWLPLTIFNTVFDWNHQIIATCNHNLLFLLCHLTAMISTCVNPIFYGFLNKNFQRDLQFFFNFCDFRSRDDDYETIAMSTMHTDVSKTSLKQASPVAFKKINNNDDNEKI
# Chain of Muscarinic acetylcholine receptor M2 (Homo sapiens) (P08172 whole entry): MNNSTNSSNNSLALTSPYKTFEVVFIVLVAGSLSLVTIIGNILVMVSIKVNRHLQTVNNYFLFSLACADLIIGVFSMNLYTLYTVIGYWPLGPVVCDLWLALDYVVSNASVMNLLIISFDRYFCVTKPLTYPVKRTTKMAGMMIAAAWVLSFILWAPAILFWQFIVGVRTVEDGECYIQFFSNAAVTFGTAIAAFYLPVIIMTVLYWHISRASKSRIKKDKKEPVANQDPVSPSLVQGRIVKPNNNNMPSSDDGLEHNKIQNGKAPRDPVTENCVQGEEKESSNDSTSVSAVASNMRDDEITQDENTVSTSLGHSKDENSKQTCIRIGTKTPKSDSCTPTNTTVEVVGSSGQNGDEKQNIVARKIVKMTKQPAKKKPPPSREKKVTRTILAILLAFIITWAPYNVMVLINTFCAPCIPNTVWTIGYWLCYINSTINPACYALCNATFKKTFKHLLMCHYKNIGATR
# Chain of Platelet-activating factor receptor (Homo sapiens) (P25105 whole entry): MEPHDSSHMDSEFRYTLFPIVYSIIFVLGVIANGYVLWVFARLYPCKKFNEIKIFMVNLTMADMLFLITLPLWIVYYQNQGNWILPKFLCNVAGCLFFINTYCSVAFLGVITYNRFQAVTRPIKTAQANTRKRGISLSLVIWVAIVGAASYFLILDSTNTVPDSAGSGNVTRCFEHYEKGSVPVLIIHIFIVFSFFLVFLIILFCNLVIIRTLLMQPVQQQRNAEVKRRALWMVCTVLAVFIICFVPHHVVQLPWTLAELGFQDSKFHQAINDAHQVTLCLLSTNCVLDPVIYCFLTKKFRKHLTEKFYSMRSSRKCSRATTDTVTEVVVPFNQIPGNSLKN
# Chain of Muscarinic acetylcholine receptor M1 (Homo sapiens) (P11229 whole entry): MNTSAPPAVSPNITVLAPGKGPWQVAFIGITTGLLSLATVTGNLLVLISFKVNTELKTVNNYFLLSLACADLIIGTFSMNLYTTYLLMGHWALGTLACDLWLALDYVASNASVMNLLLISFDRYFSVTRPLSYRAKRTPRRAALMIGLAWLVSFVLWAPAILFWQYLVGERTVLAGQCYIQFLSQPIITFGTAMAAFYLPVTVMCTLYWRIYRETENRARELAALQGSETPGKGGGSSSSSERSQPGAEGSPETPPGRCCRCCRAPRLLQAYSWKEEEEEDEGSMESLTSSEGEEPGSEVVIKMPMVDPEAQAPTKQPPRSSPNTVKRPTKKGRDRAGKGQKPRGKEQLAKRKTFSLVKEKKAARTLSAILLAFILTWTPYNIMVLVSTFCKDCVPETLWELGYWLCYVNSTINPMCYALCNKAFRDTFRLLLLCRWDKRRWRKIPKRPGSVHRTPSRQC
# Chain of 5-hydroxytryptamine receptor 1D (P79400 whole entry): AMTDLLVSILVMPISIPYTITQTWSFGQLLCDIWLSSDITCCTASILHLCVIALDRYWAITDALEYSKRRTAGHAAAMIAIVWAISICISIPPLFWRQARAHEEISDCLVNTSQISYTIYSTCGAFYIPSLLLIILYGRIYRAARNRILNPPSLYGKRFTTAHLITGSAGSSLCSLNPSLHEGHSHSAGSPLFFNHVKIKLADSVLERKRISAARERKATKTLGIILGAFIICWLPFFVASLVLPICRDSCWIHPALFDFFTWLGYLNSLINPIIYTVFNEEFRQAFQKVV
# Chain of Beta-2 adrenergic receptor (Homo sapiens) (P07550 whole entry, looked up): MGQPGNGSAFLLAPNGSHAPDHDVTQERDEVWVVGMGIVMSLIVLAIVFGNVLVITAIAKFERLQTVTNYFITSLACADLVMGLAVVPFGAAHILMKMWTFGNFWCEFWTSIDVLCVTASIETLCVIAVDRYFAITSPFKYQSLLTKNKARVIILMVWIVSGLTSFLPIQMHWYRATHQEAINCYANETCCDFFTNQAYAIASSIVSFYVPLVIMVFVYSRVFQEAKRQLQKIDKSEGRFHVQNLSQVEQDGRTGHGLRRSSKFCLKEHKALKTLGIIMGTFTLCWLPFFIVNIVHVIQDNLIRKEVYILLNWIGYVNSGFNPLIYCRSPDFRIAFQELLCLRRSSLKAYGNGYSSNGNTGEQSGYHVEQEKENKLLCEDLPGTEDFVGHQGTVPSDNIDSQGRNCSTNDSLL
# Chain of D(1A) dopamine receptor (Homo sapiens) (P21728 whole entry): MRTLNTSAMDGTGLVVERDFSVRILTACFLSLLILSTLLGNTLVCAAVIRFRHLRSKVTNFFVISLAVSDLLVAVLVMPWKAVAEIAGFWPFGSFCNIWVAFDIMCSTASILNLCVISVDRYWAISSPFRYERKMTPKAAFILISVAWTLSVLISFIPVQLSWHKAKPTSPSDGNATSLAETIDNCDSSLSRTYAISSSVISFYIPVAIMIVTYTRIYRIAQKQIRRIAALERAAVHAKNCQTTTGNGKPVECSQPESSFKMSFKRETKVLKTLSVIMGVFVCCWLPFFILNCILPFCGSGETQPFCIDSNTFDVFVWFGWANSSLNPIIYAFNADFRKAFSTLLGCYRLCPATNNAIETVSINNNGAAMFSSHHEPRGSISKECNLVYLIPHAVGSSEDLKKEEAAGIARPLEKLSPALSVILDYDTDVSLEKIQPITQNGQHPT
# Chain of Thromboxane A2 receptor (Homo sapiens) (P21731 whole entry): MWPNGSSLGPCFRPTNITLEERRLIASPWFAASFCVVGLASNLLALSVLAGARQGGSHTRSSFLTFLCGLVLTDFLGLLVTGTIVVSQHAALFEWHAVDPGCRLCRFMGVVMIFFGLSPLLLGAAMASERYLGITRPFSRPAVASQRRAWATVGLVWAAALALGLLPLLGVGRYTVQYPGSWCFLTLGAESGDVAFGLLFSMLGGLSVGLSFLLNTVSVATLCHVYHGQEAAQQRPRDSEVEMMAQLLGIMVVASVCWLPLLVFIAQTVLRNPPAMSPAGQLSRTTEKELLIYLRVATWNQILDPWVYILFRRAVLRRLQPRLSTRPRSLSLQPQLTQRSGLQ
compound,measurement,setting,value
c1ccc(CN2CCN(c3nc4ccsc4n4cccc34)CC2)cc1,IC50,[1],398 nM
same,IC50,[2],14100 nM
same,Change,[3],0%
same,Change,[4],40%
same,Change,[5],42%
same,inhibition,[6],4%
same,inhibition,[7],26%
same,inhibition,[8],5%
same,inhibition,[9],19%
same,inhibition,[10],18%
same,inhibition,[11],28%
same,inhibition,[12],1%
same,inhibition,[13],14%
same,inhibition,[14],5%
same,inhibition,[15],31%
same,inhibition,[16],40%
same,inhibition,[17],29%
same,inhibition,[18],4%
same,EC50,NG108-15,10 nM
same,inhibition,[19],20%
same,inhibition,[20],5%
same,inhibition,[21],55%
same,inhibition,[22],10%
same,inhibition,[23],14%
same,inhibition,[24],2%
same,inhibition,[25],24%
same,inhibition,[26],6%
same,inhibition,[27],12%
same,inhibition,[28],32%
same,inhibition,[29],6%
same,inhibition,[30],86%
same,inhibition,[31],17%
